Experimental data taken from US10047084B2, “Imidazolone derivatives, pharmaceutical compositions and uses thereof” (BEIJING FORELANDPHARMA CO. LTD., priority 2013, dated 2018).

Experiments:
Assay type in all cases: cell-based
PC-3 = test: CTG cell survival assay, PC-3; details: Homo sapiens, PC-3 cells
Description: (§1) 2. CTG Cell Survival Assay:
(§2) ATP is necessarily produced during the metabolic activities of viable cells, and there is a linear relationship between the content of ATP and the number of viable cells. Cell viability assay by CTG chemiluminescence is a general method for detecting the number of viable cells in the culture cells based on this principle. The addition of the CellTiter-Glo (CTG) reagent may induce cell lysis and produce chemiluminescent signals directly proportional to the amount of ATP in the well-plate, and thereby the cell proliferation activity in the well-plate can be measured by the reading values from the chemiluminescence.
(§3) 2.1 Experimental Materials and Instruments:
(§4) 2.4 Experimental Procedure: • 1.4.1 Cell Thawing: Cryogenic vials were removed from the liquid nitrogen container, directly immersed in a water bath at 37° C., and shaked from time to time to thaw. The cryogenic vials were removed from the water bath at 37° C., and transferred to the biosafe cabinet. Their lids were opened, and the cell suspensions were aspirated with pipettes, added to centrifuge tubes, and then added with more than 10 volumes of culture solution, mixed well; centrifuged for 5 min at 1000 rpm; the supernatant was discarded, and medium containing cell growth was added to resuspend cells. All cell suspensions were seeded to the T25 culture flasks and static cultured in an incubator at 37° C.; the culture solution were changed once on the next day, and continued to be cultured. • 2.4.2 Cell Passaging: After cells were grown to logarithmic phase and were 80%-90% confluent, cells were removed and placed in the biosafe cabinet, the old culture solution was discarded, and the cells were wetted and washed with PBS once or twice. An appropriate amount of 0.25% Trypsin-EDTA solution was added to the culture flasks. The flasks were placed in the carbon dioxide incubator at 37° C. for 2-5 min. An appropriate amount of cell growth medium containing 10% PBS was added to terminate the digestion, lightly swished, and transferred to the centrifuge tubes and centrifuged for 5 min at 1000 rpm. The cells were prepare (into cell suspensions for passaging and experimental use. • 2.4.3 Cell Plating • 2.4.3.1 A cell suspension was prepared: After cells were grown to logarithmic phase and were 80%-90% confluent, the cells were removed to the biosafe cabinet, and the old culture solution was discarded, then the cells were wetted and washed with PBS once or twice. An appropriate amount of 0.25% Trypsin-EDTA solution was added to the culture flask. The flask was placed in a carbon dioxide incubator at 37° C. for 2-5 min. An appropriate amount of the cell growth medium containing 10% PBS was added to terminate digestion, and was lightly swished. The solution was transferred to a centrifuge tube, centrifuged for 5 min at 1000 rpm, and counted. […] Secondly, 20 uM of the compound to be tested was diluted with the cell growth medium containing 0.2% DMSO in 3-fold dilution to obtain 9 concentrations, and there were 10 concentration gradients in total. • 2.4.4.3 Addition of the compounds to be tested: the prepared gradient dilution solutions of compounds to be tested were taken and added to the cell culture plate at 100 ul/well; at this point, the maximum concentration of compounds to be tested was 10 uM, and the concentration of DMSO was 0.1%.

MV-4-11 = test: CTG cell survival assay, MV-4-11; details: Homo sapiens, MV4-11, MV-4-11 cells
Description: as §1, §2, §3
2.1.1 Experimental Materials: compounds to be tested, cell basal culture medium, RPMI Medium 1640 (Invitrogen, Cat#11875-093), fetal calf serum (FBS): Hyclone FETAL BOVINE SERUM DEFINED (Invitrogen, Cat#SH30070.03), antibiotics: Penicilin Streptomycin (Invitrogen, Cat#15140-122), phosphate buffer (Corning Cellgro, Cat#R21-040-CV), cell digestive solution: 0.25% Trypsin-EDTA (Invitrogen, Cat#25200-056), CTG detection kit: Promega, Cat#G7571, flat-bottom 96-well black bottom plate: NUNC, Cat#165305, T25 culture flask: NUNC, Cat#156367, T75 culture flask: NUNC, Cat#156439
2.2 Experimental Instruments: Carbon Dioxide Incubator, SANYO-MCO-20AIC, Biosafe Cabinet: BSC-1360-LIIA2, Table-Top High-Speed Refrigerated Centrifuge: SorvallST 16R, Microplate Rapid Oscillator: QB-9001, M3 Reader: SpectraMax M3, Microscope: OLYMPUS-CKX41/CKX31.
2.3 Preparation of Solutions and Reagents: Formulation of cell growth medium: RPMI Medium 1640+10% FBS+antibiotics, others: trypsin digestive solution, phosphate buffer (PBS), DMSO, CTG detection kit.
2.4 Experimental Procedure: • 1.4.1 Cell Thawing: Cryogenic vials were removed from the liquid nitrogen container, directly immersed in a water bath at 37° C., and shaked from time to time to thaw. The cryogenic vials were removed from the water bath at 37° C., and transferred to the biosafe cabinet. Their lids were opened, and the cell suspensions were aspirated with pipettes, added to centrifuge tubes, and then added with more than 10 volumes of culture solution, mixed well; centrifuged for 5 min at 1000 rpm; the supernatant was discarded, and medium containing cell growth was added to resuspend cells. All cell suspensions were seeded to the T25 culture flasks and static cultured in an incubator at 37° C.; the culture solution were changed once on the next day, and continued to be cultured. • 2.4.2 Cell Passaging: After cells were grown to logarithmic phase and were 80%-90% confluent, cells were removed and placed in the biosafe cabinet, the old culture solution was discarded, and the cells were wetted and washed with PBS once or twice. An appropriate amount of 0.25% Trypsin-EDTA solution was added to the culture flasks. The flasks were placed in the carbon dioxide incubator at 37° C. for 2-5 min. An appropriate amount of cell growth medium containing 10% PBS was added to terminate the digestion, lightly swished, and transferred to the centrifuge tubes and centrifuged for 5 min at 1000 rpm. The cells were prepare (into cell suspensions for passaging and experimental use. • 2.4.3 Cell Plating • 2.4.3.1 A cell suspension was prepared: After cells were grown to logarithmic phase and were 80%-90% confluent, the cells were removed to the biosafe cabinet, and the old culture solution was discarded, then the cells were wetted and washed with PBS once or twice. An appropriate amount of 0.25% Trypsin-EDTA solution was added to the culture flask. The flask was placed in a carbon dioxide incubator at 37° C. for 2-5 min. An appropriate amount of the cell growth medium containing 10% PBS was added to terminate digestion, and was lightly swished. The solution was transferred to a centrifuge tube, centrifuged for 5 min at 1000 rpm, and counted. […]

SK-BR3/BT474 = test: CTG cell survival assay, SK-BR3/BT474; details: SK-BR3/BT474 cells
Description: as §1, §2, §3, §4

SMILES | EC50 (PC-3) | EC50 (MV-4-11) | EC50 (SK-BR3/BT474)
Cn1c(=O)n([C@H]2CC[C@H](O)CC2)c2c3cc(-c4ccc(-c5ccccc5)nc4)ccc3ncc21 [Example 25, 1-((1r,4r)-4-hydroxycyclohexyl)-3-methyl-8-(6-phenylpyridin-3-yl)-1H-imidazo[4,5-c]quinolin-2(3H)-one] | < 100 nM | < 500 nM | < 500 nM
CC(=O)N[C@H]1CC[C@@H](n2c(=O)n(C)c3cnc4ccc(-c5ccc(-c6cnn(C)c6)nc5)cc4c32)CC1 [Example 33, N-((1s,4s)-4-(3-methyl-8-(6-(1-methyl-1H-pyrazol-4-yl)pyridin-3-yl)-2-oxo-2,3-dihydro-1H-imidazo[4,5-c]quinolin-1-yl)cyclohexyl)acetamide] | < 200 nM | < 500 nM | < 100 nM
Cn1cc(-c2ccc(-c3ccc4ncc5c(c4c3)n([C@H]3CC[C@@H](NS(C)(=O)=O)CC3)c(=O)n5C)cn2)cn1 [Example 34, N-((1s,4s)-4-(3-methyl-8-(6-(1-methyl-1H-pyrazol-4-yl)pyridin-3-yl)-2-oxo-2,3-dihydro-1H-imidazo[4,5-c]quinolin-1-yl)cyclohexyl)methanesulfonamide] | < 100 nM | < 200 nM | < 50 nM
Cn1cc(-c2ccc(-c3ccc4ncc5c(c4c3)n([C@H]3CC[C@@H](C(=O)O)CC3)c(=O)n5C)cn2)cn1 [Example 35, (1s,4s)-4-(3-methyl-8-(6-(1-methyl-1H-pyrazol-4-yl)pyridin-3-yl)-2-oxo-2,3-dihydro-1H-imidazo[4,5-c]quinolin-1-yl)cyclohexanecarboxylic acid] |  | < 500 nM | < 200 nM
Cn1cc(-c2ccc(-c3ccc4ncc5c(c4c3)n(-c3ccc(C(C)(C)C(N)=O)cc3)c(=O)n5C)cn2)cn1 [Example 40, 2-methyl-2-(4-(3-methyl-8-(6-(1-methyl-1H-pyrazol-4-yl)pyridin-3-yl)-2-oxo-2,3-dihydro-1H-imidazo[4,5-c]quinolin-1-yl)phenyl)propionamide] | 10 nM | 30 nM | 25 nM
Cn1cc(-c2ccc(-c3ccc4ncc5c(c4c3)n(-c3ccc(C(C)(C)C(=O)O)cc3)c(=O)n5C)cn2)cn1 [Example 41, 2-methyl-2-(4-(3-methyl-8-(6-(1-methyl-1H-pyrazol-4-yl)pyridin-3-yl)-2-oxo-2,3-dihydro-1H-imidazo[4,5-c]quinolin-1-yl)phenyl)propionic acid] |  | 100 nM | 
Cn1c(=O)n([C@H]2CCN(S(C)(=O)=O)C2)c2c3cc(-c4ccc(-n5cccn5)nc4)ccc3ncc21 [Example 44, (S)-8-(6-(1H-pyrazol-1-yl)pyridin-3-yl)-3-methyl-1-(1-(methanesulfonyl)pyrrolidin-3-yl)-1H-imidazo[4,5-c]quinolin-2(3H)-one] | < 50 nM | 40 nM | 90 nM
Cn1cc(-c2ccc(-c3ccc4ncc5c(c4c3)n([C@H]3CCN(S(C)(=O)=O)C3)c(=O)n5C)cn2)nn1 [Example 45, (S)-3-methyl-8-(6-(1-methyl-1H-1,2,3-triazol-4-yl)pyridin-3-yl)-1-(1-(methanesulfonyl)pyrrolidin-3-yl)-1H-imidazo quinolin-2(3H)-one] | < 10 nM | < 20 nM | < 20 nM
Cn1c(=O)n([C@H]2CCN(S(C)(=O)=O)C2)c2c3cc(-c4ccc(-n5ccnn5)nc4)ccc3ncc21 [Example 46, (S)-8-(6-(1H-1,2,3-triazol-1-yl)pyridin-3-yl)-3-methyl-1-(1-(methanesulfonyl)pyrrolidin-3-yl)-1H-imidazo[4,5-c]quinolin-2(3H)-one] |  |  | 400 nM
Cn1cnc(-c2ccc(-c3ccc4ncc5c(c4c3)n([C@H]3CCN(S(C)(=O)=O)C3)c(=O)n5C)cn2)n1 [Example 48, (S)-3-methyl-8-(6-(1-methyl-1H-1,2,4-triazol-3-yl)pyridin-3-yl)-1-(1-(methanesulfonyl)pyrrolidin-3-yl)-1H-imidazo[4,5-c]quinolin-2(3H)-one] |  |  | < 100 nM
Cn1cc(-c2ccc(-c3ccc4ncc5c(c4c3)n([C@@H]3CCCN(S(=O)(=O)C4CC4)C3)c(=O)n5C)cn2)cn1 [Example 53, (R)-1-(1-(cyclopropylsulfonyl)piperidin-3-yl)-3-methyl-8-(6-(1-methyl-1H-pyrazol-4-yl)pyridin-3-yl)-1H-imidazo[4,5-c]quinolin-2(3H)-one] | < 20 nM |  | 100 nM
Cn1cc(-c2ccc(-c3ccc4ncc5c(c4c3)n([C@@H]3CCCN(S(N)(=O)=O)C3)c(=O)n5C)cn2)cn1 [Example 54, (R)-3-(3-methyl-8-(6-(1-methyl-1H-pyrazol-4-yl)pyridin-3-yl)-2-oxo-2,3-dihydro-1H-imidazo[4,5-c]quinolin-1-yl)piperidine-1-sulfamide] |  |  | 70 nM
Cn1cc(-c2ccc(-c3ccc4ncc5c(c4c3)n([C@@H]3CCCN(S(C)(=O)=O)C3)c(=O)n5C)cn2)nn1 [Example 58, (R)-3-methyl-8-(6-(1-methyl-1H-1,2,3-triazol-4-yl)pyridin-3-yl)-1-(1-(methanesulfonyl)piperidin-3-yl)-1H-imidazo[4,5-c]quinolin-2(3H)-one] |  | 60 nM | 
Cn1cc(-c2ccc(-c3ccc4ncc5c(c4c3)n(CCNS(C)(=O)=O)c(=O)n5C)cn2)cn1 [Example 63, N-(2-(3-methyl-8-(6-(1-methyl-1H-pyrazol-4-yl)pyridin-3-yl)-2-oxo-2,3-dihydro-1H-imidazo[4,5-c]quinolin-1-yl)ethyl)methanesulfonamide] |  |  | 300 nM
Cn1cc(-c2ccc(-c3ccc4ncc5c(c4c3)n(C3CN(S(C)(=O)=O)C3)c(=O)n5C)cn2)cn1 [Example 64, 3-methyl-8-(6-(1-methyl-1H-pyrazol-4-yl)pyridin-3-yl)-1-(1-(methanesulfonyl)azetidin-3-yl)-1H-imidazo[4,5-c]quinolin-2(3H)-one] |  |  | 200 nM
